Measurements taken from the supplement of paper PMC8671470.

Assays:
Test in all cases: cell viability (% survival relative to DMSO control, bortezomib = 0%); higher = less cytotoxic
Settings in all cases: 72 h
NOMO-1 = system: NOMO-1
Summary of the method: (§1)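 After 72 h at 37 °C with 5% CO2, cell viability in 384-well plates was measured by CellTiter-Glo luminescence. The plates held compounds pre-printed at 1, 10, 100, 1000 or 10000 nM in duplicate, and cells from 10 AML and 5 CML lines seeded at densities titrated to linear growth. Percent survival is the duplicate mean, normalised to vehicle as 100% and a 10 µM positive control as 0%.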

SHI-1 = system: SHI-1
Summary of the method: as §1

Mono-Mac-6 = system: Mono-Mac-6
Summary of the method: as §1

KU-812 = system: KU-812
Summary of the method: as §1

SMILES	cell viability (NOMO-1; 1 nM) [%]	cell viability (NOMO-1; 10 nM) [%]	cell viability (NOMO-1; 100 nM) [%]	cell viability (NOMO-1; 1000 nM) [%]	cell viability (NOMO-1; 10000 nM) [%]	cell viability (SHI-1; 1 nM) [%]	cell viability (SHI-1; 10 nM) [%]	cell viability (SHI-1; 100 nM) [%]	cell viability (SHI-1; 1000 nM) [%]	cell viability (SHI-1; 10000 nM) [%]	cell viability (Mono-Mac-6; 1 nM) [%]	cell viability (Mono-Mac-6; 10 nM) [%]	cell viability (Mono-Mac-6; 100 nM) [%]	cell viability (Mono-Mac-6; 1000 nM) [%]	cell viability (Mono-Mac-6; 10000 nM) [%]	cell viability (KU-812; 1 nM) [%]	cell viability (KU-812; 10 nM) [%]	cell viability (KU-812; 100 nM) [%]	cell viability (KU-812; 1000 nM) [%]	cell viability (KU-812; 10000 nM) [%]
OCCN1CCN(CCCN2c3ccccc3Sc3ccc(Cl)cc32)CC1 [Perphenazine]	112	93.1	106	108	56.9	100	110	97.1	123	55.2	97.2	106	102	100	54.6	93.8	93.5	103	98	30
C=CCc1ccc2c(c1O)C(=O)c1ccccc1C2=O [R162]	99	92.1	96.2	105	100	101	99.7	104	118	101	101	93.4	103	123	115	98.5	89.9	95.1	125	92.1
O=C(c1ccc(OCCN2CCCCC2)cc1)c1c(-c2ccc(O)cc2)sc2cc(O)ccc12 [Raloxifene]	100	95.8	99.3	100	86.5	97	102	107	110	89.5	109	95.2	107	104	77	97.1	95.8	95.3	93	70.6
NC(=O)c1ncn([C@@H]2O[C@H](CO)[C@@H](O)[C@H]2O)n1 [Ribavirin]	99	102	103	106	103	105	112	111	111	111	92.1	103	96.4	101	112	81.4	92.7	91.3	104	94.6
Nc1ncnc2c1ncn2[C@@H]1O[C@H](CSCC[C@H](N)C(=O)O)[C@@H](O)[C@H]1O [S-Adenosyl Homocysteine]	101	104	103	98.1	104	100	122	111	105	99.9	96.7	101	96.9	104	93.7	90.8	96.9	99.2	104	105
CCCc1nn(C)c2c(O)nc(-c3cc(S(=O)(=O)N4CCN(C)CC4)ccc3OCC)nc12 [Sildenafil]	86.9	104	93.2	96.8	94.9	103	95	104	111	114	87.9	110	100	110	105	87.5	104	91.3	107	92.1
Cc1coc2c1C(=O)C(=O)c1c-2ccc2c(C)cccc12 [Tanshinone I]	111	103	97.3	98.6	91.5	110	88.4	108	105	84.2	126	107	106	102	84.7	105	104	101	106	89.2
CN(C/C=C/C#CC(C)(C)C)Cc1cccc2ccccc12 [Terbinafine]	99.3	101	96.7	103	96.9	99.4	101	108	99.5	98.9	103	96.2	102	98.7	91.2	107	95.3	120	94.8	92.9
CCOC(=O)N1c2ccc(C(F)(F)F)cc2[C@@H](N(Cc2cc(C(F)(F)F)cc(C(F)(F)F)c2)C(=O)OC)C[C@H]1CC [Torcetrapib]	103	99.4	102	99.1	99	94.8	105	132	114	99.8	109	109	107	90.8	78.2	101	112	113	102	83.8
Oc1cc(Cl)ccc1Oc1ccc(Cl)cc1Cl [Triclosan]	102	89	99.3	104	105	105	96	98.3	101	103	94.5	98.3	101	116	97.2	98.8	87	99.2	98	57.9
COc1cc2c(NC3CCN(C)CC3)nc(N3CCCN(C)CC3)nc2cc1OCCCN(C)C [UNC0224]	103	111	98.4	95.2	90.4	91.9	108	102	93.1	73.7	100	116	101	98.5	81.4	98.7	107	89.8	106	79.5
CC(C)C[C@H](NC(=O)[C@@H](O)[C@H](N)Cc1ccccc1)C(=O)O [Ubenimex]	105	105	94.8	95.5	100	99.4	104	93.2	80.5	91.3	99.5	116	96.4	83.1	90.1	110	109	97.8	97.4	115
O=P(O)(O)C(O)(Cn1ccnc1)P(=O)(O)O [Zoledronic acid]	98.8	101	95.6	103	94.6	108	116	102	100	104	96.7	104	91.1	91	96.7	96.1	95.7	95.9	94.6	92.7
